We go through one compound from publication PMC11998406 (BMC Chemistry, 2025).

The structures appear in SMILES notation.

Data set [1] deals with BChE (Equus caballus, UniProt P81908). Kind of data set: Kinetic study of BChE inhibition. The following applies: 13s at 0, 5, 20, 40 µM; butyrylthiocholine iodide 187.5-3000 µM. Format: biochemical, horse.
Data set [2] relates to SH-SY5Y neuroblastoma cell line. Kind of data set: Cell viability. The data set is classed as cell-based. The following applies: up to 25 µM.

BChE, sequence (P81908 whole entry): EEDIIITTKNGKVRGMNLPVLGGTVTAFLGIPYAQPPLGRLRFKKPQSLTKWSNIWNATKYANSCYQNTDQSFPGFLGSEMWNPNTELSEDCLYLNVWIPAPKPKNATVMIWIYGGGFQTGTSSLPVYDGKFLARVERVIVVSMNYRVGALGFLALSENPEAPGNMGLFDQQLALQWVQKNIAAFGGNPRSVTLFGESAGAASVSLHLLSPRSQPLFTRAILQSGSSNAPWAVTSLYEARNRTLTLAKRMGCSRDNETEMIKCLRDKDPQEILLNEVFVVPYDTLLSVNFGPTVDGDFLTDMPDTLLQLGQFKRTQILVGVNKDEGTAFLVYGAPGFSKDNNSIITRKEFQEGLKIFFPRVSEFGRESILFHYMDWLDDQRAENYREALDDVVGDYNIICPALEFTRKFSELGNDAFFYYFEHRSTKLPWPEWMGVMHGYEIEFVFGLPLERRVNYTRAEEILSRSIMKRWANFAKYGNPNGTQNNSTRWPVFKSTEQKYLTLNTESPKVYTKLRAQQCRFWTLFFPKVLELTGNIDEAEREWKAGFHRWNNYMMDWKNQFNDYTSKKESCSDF

On to `Cc1ccc(Cn2cc(COc3ccc(-c4nnc(-c5ccc([N+](=O)[O-])cc5)o4)cc3)nn2)cc1` [Compound 13s, 2-(4-((1-(4-Methylbenzyl)-1 H-1,2,3-triazol-4-yl)methoxy)phenyl)-5-(4-nitrophenyl)-1,3,4-oxadiazole], for which the “mechanism of BChE inhibition (Lineweaver-Burk)” value in data set [1] is recorded as “competitive inhibition pattern”. For the same compound, the toxicity entry in data set [2] was “no toxicity”.
